Test results from patent publication EP1738742A2, “Benzyl-1,3-thiazolidine-2,4-dione compounds, compositions comprising them and use for stimulating or inducing the growth of keratinic fibres and/or for diminsihing their loss” (L'Oreal, priority 2005, dated 2007).

Biological target: T1, 15-PGDH de type 1 (Homo sapiens, UniProt P15428)
T1 construct: made in house
T1 sequence (P15428 1-266): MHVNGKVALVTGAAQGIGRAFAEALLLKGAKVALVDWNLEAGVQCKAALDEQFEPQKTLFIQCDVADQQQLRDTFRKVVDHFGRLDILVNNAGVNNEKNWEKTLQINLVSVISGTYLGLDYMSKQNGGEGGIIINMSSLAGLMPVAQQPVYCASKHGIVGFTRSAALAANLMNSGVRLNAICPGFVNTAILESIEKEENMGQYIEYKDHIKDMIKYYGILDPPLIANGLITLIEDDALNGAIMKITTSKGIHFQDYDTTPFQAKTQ
Experiment: Test on 15-PGDH type 1: spectrophotometric enzyme inhibition (340 nm, NAD+/PGE2)
Type: biochemical
Conditions: concentration reducing the enzymatic activity of 15-PGDH by 50%; Tris 100 mM pH 7,4, 37°C, 50 µM Prostaglandine E2, 1,5 mM β-NAD
Method: L'enzyme 15-PGDH est obtenue comme décrit dans la demande FR 02/05067 déposée au nom de L'Oréal, en suspension dans un milieu adapté à une concentration de 0,3 mg/mL puis bloquée à - 80°C. Pour les besoins du test, cette suspension est décongelée et stockée dans de la glace.
Par ailleurs on prépare un tampon Tris 100 mM, pH = 7,4, contenant 0,1 mM de dithiothréitol (D5545, Sigma-Aldrich, L'isle D'Abeau Chesne, BP 701, 38297, Saint Quentin Fallavier), 1,5 mM de β-NAD (N6522, Sigma-Aldrich, L'isle D'Abeau Chesne, BP 701, 38297, Saint Quentin Fallavier), 50 µM de Prostaglandine E2 (P4172, Sigma-Aldrich, L'isle D'Abeau Chesne, BP 701, 38297, Saint Quentin Fallavier).
Dans la cuve d'un spectrophotomètre (Perkin-Elmer, Lambda 2) thermostaté à 37°C, dont la longueur d'onde de mesure est réglée à 340 nm, sont introduits 0,965 ml de ce tampon (préalablement porté à 37°C). 0,035 mL de suspension enzymatique à 37°C sont introduits dans la cuve concomitamment à l'enregistrement ( correspondant à une augmentation de la densité optique à 340 nm). La vitesse maximale de réaction est relevée.
Les valeurs essais (contenant les composés de formule (I)) sont comparées à la valeur témoin (sans composé de formule (I)); les résultats indiqués représentent soit le pourcentage d'inhibition de l'activité enzymatique de 15-PGDH pour une concentration donnée de composé de formule (I), soit la concentration à laquelle le composé de formule (I) réduit de 50% l'activité enzymatique de 15-PGDH, à savoir IC50dh.

IC50	Structure (SMILES)
2750 nM	O=C1NC(=O)C(Cc2ccccc2Oc2ccccc2)S1 (stereo not shown) [compound 3]
400 nM	CC(C)(C)c1ccc(Oc2ccccc2CC2SC(=O)NC2=O)cc1 (stereo not shown) [compound 4, 5-[2-(4-tert-butylphenoxy)benzyl]-1,3-thiazolidine-2,4-dione]
580 nM	CC(C)(C)c1ccc(Oc2cccc(CC3SC(=O)NC3=O)c2)cc1 (stereo not shown) [compound 5]
1210 nM	O=C1NC(=O)C(Cc2ccccc2Oc2ccc(Cl)cc2Cl)S1 (stereo not shown) [compound 2]
